As usually defined, the IC50 is the concentration at which inhibition is half-maximal.

Some results are limits rather than exact numbers.

Chain of HDAC2 (Q92769 with tags, fused parts or gaps): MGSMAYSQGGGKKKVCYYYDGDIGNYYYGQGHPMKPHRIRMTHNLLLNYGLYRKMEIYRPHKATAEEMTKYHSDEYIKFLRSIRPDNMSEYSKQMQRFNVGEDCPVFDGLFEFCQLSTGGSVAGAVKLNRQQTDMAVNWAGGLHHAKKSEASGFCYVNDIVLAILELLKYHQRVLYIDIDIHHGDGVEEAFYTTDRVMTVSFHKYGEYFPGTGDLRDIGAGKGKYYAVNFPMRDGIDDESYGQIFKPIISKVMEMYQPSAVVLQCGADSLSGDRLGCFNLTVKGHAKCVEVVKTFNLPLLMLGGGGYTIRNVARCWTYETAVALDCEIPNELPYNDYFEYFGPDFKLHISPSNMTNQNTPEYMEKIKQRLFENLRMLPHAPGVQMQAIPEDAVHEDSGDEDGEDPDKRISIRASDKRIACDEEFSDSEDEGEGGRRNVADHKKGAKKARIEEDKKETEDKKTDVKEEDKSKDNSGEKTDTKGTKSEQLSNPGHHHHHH

One experiment has as its target HDAC2 (Homo sapiens, UniProt Q92769). Description: HDAC2 fluorescence inhibition assay (tBoc-Lys(Ac)-AMC).
Conditions: not given
Compound `CC(C)CNC(=O)c1cnn(Cc2ccc(C(=O)Nc3ccccc3N)cc2)c1` [Example 150, 1-(4-(2-aminophenylcarbamoyl)benzyl)-N-isobutyl-1H-pyrazole-4-carboxamide] showed a 50% inhibitory concentration (IC50) of at most 50 nM. Same read-out and setting: the value for `COC(=O)Nc1ccc2c(cnn2Cc2ccc(C(=O)Nc3ccccc3N)cc2)c1` [Example 14, Methyl 1-(4-((2-aminophenyl)carbamoyl)benzyl)-1H-indazol-5-ylcarbamate] was at most 50 nM; that for `COc1ccc2c(C)nn(Cc3ccc(C(=O)Nc4cc(-c5cccs5)ccc4N)cc3)c2c1` [Example 114, N-(2-amino-5-(thiophen-2-yl)phenyl)-4-((6-methoxy-3-methyl-1H-indazol-1-yl)methyl)benzamide] was 50 to 100 nM; that for `Nc1ccccc1NC(=O)c1ccc(Cn2cc(C(=O)NCCCN3CCOCC3)cn2)cc1` [Example 154, 1-(4-(2-aminophenylcarbamoyl)benzyl)-N-(3-morpholinopropyl)-1H-pyrazole-4-carboxamide] was at most 50 nM. Same read-out and setting: the value for `Nc1ccccc1NC(=O)c1ccc(Cn2cc(C(=O)Nc3ccccc3)cn2)cc1` [Example 127, 1-(4-(2-aminophenylcarbamoyl)benzyl)-N-phenyl-1H-pyrazole-4-carboxamide] was at most 50 nM; that for `Nc1ccccc1NC(=O)c1ccc(Cn2cc3c(F)cccc3n2)cc1` [Example 49, N-(2-aminophenyl)-4-((4-fluoro-2H-indazol-2-yl)methyl)benzamide] was at most 50 nM; that for `Nc1ccn(Cc2ccc(C(=O)Nc3ccccc3N)cc2)n1` [Example 133, 4-((3-amino-1H-pyrazol-1-yl)methyl)-N-(2-aminophenyl)benzamide] was 100 to 500 nM. `Nc1ccccc1NC(=O)c1ccc(Cn2ncc3cc(NC(=O)OCCN4CCOCC4)ccc32)cc1` [Example 22, 2-Morpholinoethyl 1-(4-((2-aminophenyl)carbamoyl)benzyl)-1H-indazol-5-ylcarbamate] had an IC50 of at most 50 nM. Same read-out and setting: the value for `Cc1c2ccc(C(F)(F)F)cc2nn1Cc1ccc(C(=O)Nc2ccccc2N)cc1` [Example 92, N-(2-aminophenyl)-4-((3-methyl-6-(trifluoromethyl)-2H-indazol-2-yl)methyl)benzamide] was 50 to 100 nM; that for `Nc1ccccc1NC(=O)c1ccc(Cn2cc3c(F)cc(F)cc3n2)cc1` [Example 45, N-(2-aminophenyl)-4-((4,6-difluoro-2H-indazol-2-yl)methyl)benzamide] was 50 to 100 nM. Compound `C[C@@H](c1ccc(C(=O)Nc2ccccc2N)cc1)n1cc2ccccc2n1` [Example 51, (S)-4-(1-(2H-indazol-2-yl)ethyl)-N-(2-aminophenyl)benzamide] gave an IC50 of 50 to 100 nM. `COCCNC(=O)c1cnn(Cc2ccc(C(=O)Nc3ccccc3N)cc2)c1` [Example 151, 1-(4-(2-aminophenylcarbamoyl)benzyl)-N-(2-methoxyethyl)-1H-pyrazole-4-carboxamide] registered an IC50 of 50 to 100 nM. As to `CC(=O)Nc1ccc2c(C)nn(Cc3ccc(C(=O)Nc4ccccc4N)cc3)c2c1` [Example 87, 4-((6-acetamido-3-methyl-1H-indazol-1-yl)methyl)-N-(2-aminophenyl)benzamide], the IC50 lay in the range of 50 to 100 nM. On the same count and under the same terms, the value for `Nc1ccccc1NC(=O)c1ccc(Cn2ncc3ccccc32)s1` [Example 24, 5-((1H-Indazol-1-yl)methyl)-N-(2-aminophenyl)thiophene-2-carboxamide] was 100 to 500 nM; that for `CC(=O)Nc1ccc2c(c1)c(N)nn2Cc1ccc(C(=O)Nc2ccccc2N)cc1` [Example 105, 4-((5-acetamido-3-amino-1H-indazol-1-yl)methyl)-N-(2-aminophenyl)benzamide] was 50 to 100 nM.

In the case of `Nc1ccccc1NC(=O)c1ccc(CCn2ncc3ccccc32)cc1` [Example 40, 4-(2-(1H-indazol-1-yl)ethyl)-N-(2-aminophenyl)benzamide], the IC50 was 100 to 500 nM.

The experiment is the same for the next values; noted with them: read-out: IC50 of selected exemplified compounds against HDAC2; 50 μM tBoc-Lys(Ac)-AMC, 1 nM HDAC2, 60 minutes at room temperature.
As for `CC(=O)Nc1ccc2c(cnn2Cc2ccc(C(=O)Nc3ccccc3N)cc2)c1` [Example 102, 4-((5-acetamido-1H-indazol-1-yl)methyl)-N-(2-aminophenyl)benzamide], the IC50 was at least 500 nM.

Values taken from US7732475B2, “Histone deacetylase inhibitors” (Takeda San Diego, Inc., priority 2005, dated 2010).
